Here are results for one compound from patent publication US12708620B2, “Prodrugs and medical uses thereof” (priority 2018, dated 2026).

Each structure is given as a SMILES string.

For data set [1], the system named is MDA-MB-231 tumor xenograft. In words: triple negative breast cancer xenograft model. It counts as in vivo, BALB/c Nude Mice. Particulars: MDA-MB-231 xenograft; single treatment cycle.
In data set [2] the test system is panel of cancer cell lines. In words: cytotoxicity across the tested cancer cell lines (summary statements). In kind it is cell-based, human. The protocol:
The IC50 values were obtained using the resazurin-based potency assay under anoxic (<0.01% O2) and/or normoxic conditions (21% O2). The hypoxia cytotoxicity ratio (HCR) is calculated as the ratio of IC50 value […] (HCR=IC50 normoxia/IC50 anoxia).
For anoxic condition, the complete medium for each cell line (25 ml in a T25 or 80 ml in a T80) was equilibrated in the anoxic chamber 48 h before use to allow an as large as possible interchange between media and atmosphere, agitating the flask once a day and just before use. The 96-well plates for cell seeding and the 96-well plates for preparation of a mother plate containing the compound to be tested (e.g. Cpd.11 Ms) at appropriate concentrations as well as disposable reagent reservoirs and pipet tips that are required for cell seeding under anoxic conditions were placed in anoxia at least 72 h before use. […]
Cell seeding was performed starting from a cell suspension (70% confluent flasks of cells). Appropriate cell numbers/volumes were used at the pre-determined cell density (typically 100 μl/well) as determined by performing a growth curve experiment were calculated. […]

In the case of `CCN1CCN(C(=O)c2cc(N(CCBr)CCOS(C)(=O)=O)c(S(C)(=O)=O)cc2[N+](=O)[O-])CC1.CS(=O)(=O)O` [Cpd.11 Ms, 4-(5-((2-bromoethyl) (2-((methylsulfonyl)oxy)ethyl)amino)-4-(methylsulfonyl)-2-nitrobenzoyl)-1-ethylpiperazin-1-ium methanesulfonate], the tumour growth result in data set [1] is “tumour growth rate reduction”. Further, the hypoxic cytotoxic ratio in data set [2] (across cell lines) is not below 10. The “cytotoxicity against cancer cell lines resistant to cisplatin and/or chlorambucil” value in data set [2] (pre-clinical models) is listed as “highly cytotoxic”.
